Source: US20160213692A1, “ADVANCED METHOD OF TREATMENT AND MANAGEMENT OF CHRONIC HEPATITIS C INFECTION” (priority 2015, published 2016)
Marks after values point to notes of the source that are not given here. Blank lines part the entries; values can stand above or below the compound they belong to.

Legend:
male Wistar rats [1] = experiment: Liver and renal function parameters in serum (Cobas e411) of treated rats
Experimental: (§1) A total of 80 male Wistar rats weighing 250-300 gm were used. All animals received humane care during the study protocol and during sacrifice.
(§2) The study duration was 5 weeks. Peg-INF-α-2a was prepared by diluting the content of a full syringe (180 μg/0.5 ml) in 9.5 ml sterile normal saline to prepare a final volume of 10 ml and the final concentration was 18 μg/ml. Each rat in the ‘P’, ‘PD’, ‘PR’ and ‘PRD’ groups received a weekly subcutaneous injection of 0.33 ml (6 μg/rat) for a total of 4 injections. The drug was prepared fresh on the day of use. […] Cholecalciferol ([…]) was prepared by adding 4 ml to 16 ml saline every morning to form a final concentration of 1000 IU/mL. Each rat in the ‘PD’, ‘PRD’, ‘PR’ and ‘VitD’ groups received 0.5 ml/day (500 IU/day) for the full study duration. Cholecalciferol, and its dose, was chosen over calcitriol, the hormonal form of vitamin D, to avoid the risk of soft tissue calcification (Salum et al, 2012). Following 4 injections, the rats were sacrificed in the fifth week at the time of the 5th injection would have been given. RBV and vitamin D3 were continued till the day before sacrifice.
(§3) All Rats were sacrificed on the same day under anesthesia using diethyl ether (Fisher Scientific UK Ltd, Loughborough, UK) a week after the last injection. 1 ml of blood was collected on EDTA for CBC and 3 ml of blood were collected in plane tube immediately after cutting the vena cava. Blood samples in plane tubes were centrifuged and the serum was stored in −20° C. for routine biochemistry and to measure serum concentrations of 25-OH vitamin D and EPO.
The quantitative measurement of serum liver enzymes (ALP, ALT and AST), total and indirect bilirubin, creatinine and urea was done using Cobas e411 (Roche Diagnostics International Ltd, Switzerland) according to the manufacturer protocol.

[2] = male, Wistar, rat, in vivo, 5 weeks
Experimental: as §1, §2
All Rats were sacrificed on the same day under anesthesia using diethyl ether (Fisher Scientific UK Ltd, Loughborough, UK) a week after the last injection. […]

male Wistar rats [3] = experiment: Haematological profile / erythrocyte indices (Sysmex XS 500) of treated rats
Experimental: as §1, §2, §3
Whole blood samples (1 ml) collected on EDTA were processed on Sysmex XS 500 (Sysmex, IL, USA) for the measurement of hemoglobin concentrations, RBCs count, packed cell volume (PCV), mean corpuscular volume (MCV), mean corpuscular hemoglobin (MCH) an mean corpuscular hemoglobin concentration (MCHC).

monkey red cells = conditions: in vitro incubation; cited from earlier work
human red cells = conditions: in vitro incubation; cited from earlier work
rat red cells = conditions: in vitro incubation; cited from earlier work
[4] = whole blood, male Wistar rats, 5 weeks
[5] = serum, male Wistar rats, 5 weeks

ALP (male Wistar rats [1]; rat, in vivo): 119 ± 9.9 IU/L
Creatinine (male Wistar rats [1]; rat, in vivo): 0.22 ± 0.03 mg/dL
Indirect Bilirubin (male Wistar rats [1]; rat, in vivo): 0.17 ± 0.07 mg/dL
Total Bilirubin (male Wistar rats [1]; rat, in vivo): 0.49 ± 0.14 mg/dL
Urea (male Wistar rats [1]; rat, in vivo): 47.3 ± 5.8 mg/dL
25-OH Vitamin D [2]: 42 ± 10^c,e ng/mL
MCH (male Wistar rats [3]; rat, in vivo): 17.6 ± 0.7 pg
MCHC (male Wistar rats [3]; rat, in vivo): 34.4 ± 0.9^c,e pg/dL
MCV (male Wistar rats [3]; rat, in vivo): 64.3 ± 4.2 fL
PCV (male Wistar rats [3]; rat, in vivo): 42.1 ± 2.7%
RBCs (male Wistar rats [3]; rat, in vivo): 7.58 ± 0.7^a,b,c,e ×10^6/μl
Hb (male Wistar rats [3]; [4]): 13.1 ± 1^a,b,c,e g/dL
SMILES: NC(=O)c1ncn([C@@H]2O[C@H](CO)[C@@H](O)[C@H]2O)n1 [R group, ribavirin]
ALT (male Wistar rats [1]; rat, in vivo): 66.1 ± 2.6 U/L
AST (male Wistar rats [1]; rat, in vivo): 78.4 ± 3.2 U/L
initial drug content retained by red cells (monkey red cells): 77%
initial drug content retained by red cells (human red cells): 45%
initial drug content retained by red cells (rat red cells): 20%

SMILES: C=C1CC[C@H](O)C/C1=C/C=C1\CCC[C@]2(C)[C@@H]([C@H](C)CCCC(C)C)CC[C@@H]12 [VitD group, cholecalciferol]
ALT (male Wistar rats [1]; [5]): 66.7 ± 4.2 U/L
AST (male Wistar rats [1]; [5]): 75.8 ± 4.2 U/L
Creatinine (male Wistar rats [1]; [5]): 0.2 ± 0.06 mg/dL
Indirect Bilirubin (male Wistar rats [1]; [5]): 0.15 ± 0.08 mg/dL
Total Bilirubin (male Wistar rats [1]; [5]): 0.51 ± 0.23 mg/dL
Urea (male Wistar rats [1]; [5]): 48.1 ± 5.2 mg/dL
ALP (male Wistar rats [1]; serum, male Wistar rats, 5 weeks, mean ± spread): 120.7 ± 12.3 IU/L
development of anemia (male Wistar rats [3]; addition of cholecalciferol 500 IU/day to Peg-INF-α and/or RBV, rats, 5 weeks): prevented the development of anemia
Hb (male Wistar rats [3]; [4]): 15.1 ± 0.7^d,f g/dL
MCH (male Wistar rats [3]; [4]): 17.4 ± 0.7 pg
MCHC (male Wistar rats [3]; [4]): 34 ± 0.8^c,e,g pg/dL
MCV (male Wistar rats [3]; [4]): 61.3 ± 1.8 fL
PCV (male Wistar rats [3]; [4]): 44.9 ± 1.8%
RBCs (male Wistar rats [3]; [4]): 8.9 ± 0.5^d,f ×10^6/μl
